Type in all cases: functional
For assay [1], the target named is T1, Sphingosine 1-phosphate receptor 4 (Homo sapiens, UniProt O95977).
T1 sequence (O95977 whole entry): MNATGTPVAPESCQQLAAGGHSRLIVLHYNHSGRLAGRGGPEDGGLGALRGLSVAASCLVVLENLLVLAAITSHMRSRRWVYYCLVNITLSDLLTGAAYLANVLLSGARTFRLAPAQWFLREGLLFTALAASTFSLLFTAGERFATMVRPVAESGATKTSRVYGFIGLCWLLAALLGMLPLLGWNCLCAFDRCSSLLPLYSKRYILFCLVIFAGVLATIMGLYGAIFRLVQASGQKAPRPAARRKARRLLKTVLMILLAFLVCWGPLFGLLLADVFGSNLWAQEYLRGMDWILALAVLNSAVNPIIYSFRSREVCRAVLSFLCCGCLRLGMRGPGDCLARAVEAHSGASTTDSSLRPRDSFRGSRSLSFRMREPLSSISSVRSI
The experiment in a line: Late-stage fluorescence-based dose-response cell-based counterscreen assay to identify agonists of the Sphingosine 1-Phosphate Receptor 3 (S1P3): Sphingosine 1-Phosphate Receptor 4 (S1P4) agonist assay.

Assay [2] deals with Sphingosine 1-phosphate receptor 2 (Homo sapiens, UniProt O95136). The experiment in a line: Late-stage fluorescence-based dose-response cell-based counterscreen assay to identify agonists of the Sphingosine 1-Phosphate Receptor 3 (S1P3): Sphingosine 1-Phosphate Receptor 2 (S1P2) agonist assay.
Sequence of Sphingosine 1-phosphate receptor 2 (O95136 whole entry): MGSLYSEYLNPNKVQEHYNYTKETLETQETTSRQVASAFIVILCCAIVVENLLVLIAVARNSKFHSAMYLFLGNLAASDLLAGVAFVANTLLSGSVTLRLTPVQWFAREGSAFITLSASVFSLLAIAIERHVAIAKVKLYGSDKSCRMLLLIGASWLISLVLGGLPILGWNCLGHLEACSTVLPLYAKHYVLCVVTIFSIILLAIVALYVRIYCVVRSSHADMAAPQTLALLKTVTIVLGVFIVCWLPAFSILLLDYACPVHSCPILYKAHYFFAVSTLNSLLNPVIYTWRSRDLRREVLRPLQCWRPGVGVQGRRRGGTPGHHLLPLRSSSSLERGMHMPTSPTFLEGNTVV
The target in assay [3] is Ras and Rab interactor 1/Tyrosine-protein kinase ABL1 (Homo sapiens, UniProt P00519+Q13671).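 Further: biochemical TR-FRET dose-response test measuring inhibition of binding between Rin1 and Abl proteins.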
Sequence of Ras and Rab interactor 1/Tyrosine-protein kinase ABL1 (P00519 whole entry): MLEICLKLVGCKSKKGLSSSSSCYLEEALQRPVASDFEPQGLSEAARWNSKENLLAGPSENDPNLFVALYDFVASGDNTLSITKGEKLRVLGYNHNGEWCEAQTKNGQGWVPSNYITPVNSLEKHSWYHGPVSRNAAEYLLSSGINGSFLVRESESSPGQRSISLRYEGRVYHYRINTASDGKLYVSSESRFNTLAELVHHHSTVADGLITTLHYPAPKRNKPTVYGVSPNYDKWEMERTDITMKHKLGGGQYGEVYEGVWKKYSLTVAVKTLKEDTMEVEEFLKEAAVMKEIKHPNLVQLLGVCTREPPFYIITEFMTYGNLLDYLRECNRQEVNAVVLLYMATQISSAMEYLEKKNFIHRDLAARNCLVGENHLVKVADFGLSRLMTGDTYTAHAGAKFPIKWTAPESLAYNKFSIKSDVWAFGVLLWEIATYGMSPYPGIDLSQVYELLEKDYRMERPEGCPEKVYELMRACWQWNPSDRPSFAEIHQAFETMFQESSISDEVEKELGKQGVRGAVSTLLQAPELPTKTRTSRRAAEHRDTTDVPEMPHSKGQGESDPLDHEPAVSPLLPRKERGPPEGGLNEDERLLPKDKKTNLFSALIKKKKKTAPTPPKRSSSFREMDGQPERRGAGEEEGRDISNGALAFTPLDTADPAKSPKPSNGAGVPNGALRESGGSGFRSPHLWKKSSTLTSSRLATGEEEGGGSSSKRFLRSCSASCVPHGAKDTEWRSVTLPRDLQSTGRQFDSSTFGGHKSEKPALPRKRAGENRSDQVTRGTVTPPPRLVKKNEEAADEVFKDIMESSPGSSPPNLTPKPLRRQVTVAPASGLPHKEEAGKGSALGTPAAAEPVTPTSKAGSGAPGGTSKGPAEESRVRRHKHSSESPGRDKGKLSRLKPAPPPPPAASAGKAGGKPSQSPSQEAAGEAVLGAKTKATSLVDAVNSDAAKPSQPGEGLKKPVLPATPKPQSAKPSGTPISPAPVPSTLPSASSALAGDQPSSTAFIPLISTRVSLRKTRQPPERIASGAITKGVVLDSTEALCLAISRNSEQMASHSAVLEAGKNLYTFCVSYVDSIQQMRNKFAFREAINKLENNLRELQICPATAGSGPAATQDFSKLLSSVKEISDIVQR
Sequence of Ras and Rab interactor 1/Tyrosine-protein kinase ABL1 (Q13671 whole entry): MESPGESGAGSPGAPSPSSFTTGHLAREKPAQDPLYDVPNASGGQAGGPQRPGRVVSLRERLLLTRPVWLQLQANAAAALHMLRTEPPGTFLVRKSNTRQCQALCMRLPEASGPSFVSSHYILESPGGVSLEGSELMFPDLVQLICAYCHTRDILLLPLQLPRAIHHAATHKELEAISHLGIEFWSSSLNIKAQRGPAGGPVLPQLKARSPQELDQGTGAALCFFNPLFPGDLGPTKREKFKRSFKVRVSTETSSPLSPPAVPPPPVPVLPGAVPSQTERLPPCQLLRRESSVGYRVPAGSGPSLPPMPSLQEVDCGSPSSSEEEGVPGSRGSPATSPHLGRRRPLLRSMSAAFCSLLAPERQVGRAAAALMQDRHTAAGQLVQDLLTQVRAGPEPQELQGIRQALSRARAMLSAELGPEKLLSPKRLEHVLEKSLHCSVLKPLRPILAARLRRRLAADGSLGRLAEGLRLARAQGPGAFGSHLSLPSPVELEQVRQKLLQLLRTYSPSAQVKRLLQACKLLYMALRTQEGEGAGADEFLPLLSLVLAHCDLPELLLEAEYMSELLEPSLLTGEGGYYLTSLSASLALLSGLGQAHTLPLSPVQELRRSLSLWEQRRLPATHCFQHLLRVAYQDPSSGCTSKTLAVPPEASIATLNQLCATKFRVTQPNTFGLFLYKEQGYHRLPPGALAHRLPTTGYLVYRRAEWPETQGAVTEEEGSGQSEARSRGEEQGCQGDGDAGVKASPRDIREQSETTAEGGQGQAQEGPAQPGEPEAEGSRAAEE
Assay [4] deals with T2, Sentrin-specific protease 7 (Homo sapiens, UniProt Q9BQF6).
T2 sequence (Q9BQF6 whole entry): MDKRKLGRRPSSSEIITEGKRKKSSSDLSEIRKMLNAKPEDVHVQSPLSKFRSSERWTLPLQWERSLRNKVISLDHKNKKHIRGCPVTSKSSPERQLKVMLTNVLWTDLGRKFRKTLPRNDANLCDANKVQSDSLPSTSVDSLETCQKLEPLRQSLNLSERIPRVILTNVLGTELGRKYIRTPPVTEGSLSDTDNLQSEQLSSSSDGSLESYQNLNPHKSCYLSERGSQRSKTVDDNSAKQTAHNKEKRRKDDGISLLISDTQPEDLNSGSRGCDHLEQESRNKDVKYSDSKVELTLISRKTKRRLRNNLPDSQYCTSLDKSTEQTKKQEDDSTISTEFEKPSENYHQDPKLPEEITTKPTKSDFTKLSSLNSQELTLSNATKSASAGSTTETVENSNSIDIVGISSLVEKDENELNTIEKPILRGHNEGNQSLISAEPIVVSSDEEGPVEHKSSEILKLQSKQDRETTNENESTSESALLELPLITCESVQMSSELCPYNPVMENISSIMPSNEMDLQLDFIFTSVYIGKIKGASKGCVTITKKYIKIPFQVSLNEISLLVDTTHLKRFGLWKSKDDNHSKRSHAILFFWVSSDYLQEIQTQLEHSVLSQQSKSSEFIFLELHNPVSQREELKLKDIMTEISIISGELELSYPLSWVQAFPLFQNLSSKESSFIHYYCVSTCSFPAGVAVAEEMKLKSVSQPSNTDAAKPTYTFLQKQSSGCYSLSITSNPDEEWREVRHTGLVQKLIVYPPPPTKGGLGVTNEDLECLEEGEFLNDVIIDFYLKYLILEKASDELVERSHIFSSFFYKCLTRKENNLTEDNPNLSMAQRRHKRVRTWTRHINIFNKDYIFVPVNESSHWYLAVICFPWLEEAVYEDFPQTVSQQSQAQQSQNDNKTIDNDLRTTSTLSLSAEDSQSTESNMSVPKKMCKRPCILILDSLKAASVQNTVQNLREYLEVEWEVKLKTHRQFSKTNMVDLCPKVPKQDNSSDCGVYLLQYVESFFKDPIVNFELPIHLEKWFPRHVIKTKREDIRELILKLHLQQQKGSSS
The experiment in a line: inhibition of human SENP7 cleavage activity – biochemical, luminescence, SAR follow-up (AID 504497).

In assay [5] the target is T3, Sentrin-specific protease 8 (Homo sapiens, UniProt Q96LD8).
T3 sequence (Q96LD8 whole entry): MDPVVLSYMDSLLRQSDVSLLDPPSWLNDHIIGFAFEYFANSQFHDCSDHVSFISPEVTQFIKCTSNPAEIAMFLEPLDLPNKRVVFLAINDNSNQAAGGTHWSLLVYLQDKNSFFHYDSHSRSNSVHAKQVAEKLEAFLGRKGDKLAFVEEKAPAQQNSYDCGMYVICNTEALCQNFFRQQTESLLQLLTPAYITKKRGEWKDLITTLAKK
The experiment in a line: inhibition of sentrin protease 8 – biochemical, luminescence, set 2, SAR follow-up (AID 588601).

Assay [6] deals with T4, Caspase-3 (Homo sapiens, UniProt P42574).
T4 sequence (P42574 whole entry): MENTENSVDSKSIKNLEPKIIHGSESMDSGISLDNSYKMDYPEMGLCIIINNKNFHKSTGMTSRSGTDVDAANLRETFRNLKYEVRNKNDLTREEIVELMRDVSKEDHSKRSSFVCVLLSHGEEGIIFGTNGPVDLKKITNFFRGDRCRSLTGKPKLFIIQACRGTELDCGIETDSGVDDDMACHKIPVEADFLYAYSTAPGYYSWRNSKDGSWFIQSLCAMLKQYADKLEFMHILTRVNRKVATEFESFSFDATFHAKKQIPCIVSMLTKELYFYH
The experiment in a line: SAR Analysis of small molecule inhibitors of Sentrin-specific proteases (SENPs) using a Caspase-3 Selectivity assay. [Related pubchem assays (depositor defined):AID2540, AID2599, AID434973, AID489001].

Assay [7] deals with T2, Sentrin-specific protease 7. The experiment in a line: inhibition of human SENP7 cleavage activity – biochemical, luminescence, set 2, SAR follow-up (AID 588600).
The target in assay [8] is T3, Sentrin-specific protease 8. The experiment in a line: inhibition of human SENP8 cleavage activity – biochemical, luminescence, SAR follow-up (AID 504501).
In assay [9] the target is T5, Sentrin-specific protease 6 (Homo sapiens, UniProt Q9GZR1).
T5 sequence (Q9GZR1 whole entry): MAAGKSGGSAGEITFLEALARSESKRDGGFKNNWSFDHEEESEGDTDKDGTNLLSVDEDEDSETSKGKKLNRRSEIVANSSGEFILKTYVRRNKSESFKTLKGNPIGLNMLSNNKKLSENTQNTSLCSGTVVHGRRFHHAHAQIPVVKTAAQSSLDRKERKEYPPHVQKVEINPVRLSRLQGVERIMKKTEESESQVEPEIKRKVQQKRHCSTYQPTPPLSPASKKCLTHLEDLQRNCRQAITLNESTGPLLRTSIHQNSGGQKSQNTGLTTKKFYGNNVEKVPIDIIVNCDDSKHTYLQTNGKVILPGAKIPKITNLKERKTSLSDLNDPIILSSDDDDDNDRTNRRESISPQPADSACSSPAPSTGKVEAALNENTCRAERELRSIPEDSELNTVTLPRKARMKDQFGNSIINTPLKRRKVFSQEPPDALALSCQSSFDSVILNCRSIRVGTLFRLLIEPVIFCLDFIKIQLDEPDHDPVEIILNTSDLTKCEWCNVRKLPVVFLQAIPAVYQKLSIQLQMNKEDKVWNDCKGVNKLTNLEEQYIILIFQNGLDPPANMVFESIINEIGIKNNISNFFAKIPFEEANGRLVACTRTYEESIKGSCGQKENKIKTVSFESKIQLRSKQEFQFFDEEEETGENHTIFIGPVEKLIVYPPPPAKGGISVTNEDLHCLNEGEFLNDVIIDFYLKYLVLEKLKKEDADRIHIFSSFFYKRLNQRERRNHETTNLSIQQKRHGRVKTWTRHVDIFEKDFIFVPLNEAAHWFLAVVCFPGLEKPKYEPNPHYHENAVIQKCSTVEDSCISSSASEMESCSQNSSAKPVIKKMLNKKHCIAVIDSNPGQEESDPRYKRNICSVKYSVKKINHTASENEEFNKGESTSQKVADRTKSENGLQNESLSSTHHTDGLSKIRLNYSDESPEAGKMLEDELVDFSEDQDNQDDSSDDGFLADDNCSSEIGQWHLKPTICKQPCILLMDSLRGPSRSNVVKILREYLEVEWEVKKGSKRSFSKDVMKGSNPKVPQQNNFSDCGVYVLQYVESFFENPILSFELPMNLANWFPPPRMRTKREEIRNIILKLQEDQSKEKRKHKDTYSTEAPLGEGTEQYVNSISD
The experiment in a line: SAR Analysis of small molecule inhibitors of Sentrin-specific protease 6 (SENP6) using a Luminescent assay. [Related pubchem assays (depositor defined):AID2582, AID2599].

Assay [10] addresses T4, Caspase-3. The experiment in a line: inhibition of recombinant caspase-3 activity – biochemical, luminescence, set 2, selectivity assay for SENP protease inhibitor project, SAR follow-up (AID 588599).
Assay [11] addresses Aurora kinase A (Homo sapiens, UniProt O14965).
Assay [12] deals with High affinity nerve growth factor receptor (Homo sapiens, UniProt P04629).
Sequence of High affinity nerve growth factor receptor (P04629 whole entry): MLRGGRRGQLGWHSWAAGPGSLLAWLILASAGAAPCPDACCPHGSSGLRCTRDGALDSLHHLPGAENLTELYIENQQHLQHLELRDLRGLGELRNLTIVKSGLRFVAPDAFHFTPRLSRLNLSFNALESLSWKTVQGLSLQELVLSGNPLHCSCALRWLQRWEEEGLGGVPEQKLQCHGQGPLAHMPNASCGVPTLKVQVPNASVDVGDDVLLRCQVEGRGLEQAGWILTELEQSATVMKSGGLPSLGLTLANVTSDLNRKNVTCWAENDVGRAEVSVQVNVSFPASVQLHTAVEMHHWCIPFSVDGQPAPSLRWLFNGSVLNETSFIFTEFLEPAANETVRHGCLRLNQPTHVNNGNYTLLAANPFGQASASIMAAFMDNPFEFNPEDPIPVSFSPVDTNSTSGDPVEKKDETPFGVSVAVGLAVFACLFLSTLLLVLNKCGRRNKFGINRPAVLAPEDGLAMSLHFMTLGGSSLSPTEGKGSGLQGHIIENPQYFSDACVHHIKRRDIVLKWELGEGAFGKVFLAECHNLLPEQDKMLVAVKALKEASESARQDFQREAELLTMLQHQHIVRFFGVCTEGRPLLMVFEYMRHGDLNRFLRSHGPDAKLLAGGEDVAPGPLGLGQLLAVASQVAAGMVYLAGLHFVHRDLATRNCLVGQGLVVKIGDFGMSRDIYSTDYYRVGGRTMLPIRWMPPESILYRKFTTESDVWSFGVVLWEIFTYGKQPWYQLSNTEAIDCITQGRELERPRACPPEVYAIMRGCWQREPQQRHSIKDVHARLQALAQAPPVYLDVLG

The structures appear in SMILES notation. Calls of active or inactive are those of the source. For most assays here, no stated cut-off is given here; in the data, actives have a measured IC50 and inactives only a lower limit.

Sequence of Aurora kinase A (O14965 whole entry): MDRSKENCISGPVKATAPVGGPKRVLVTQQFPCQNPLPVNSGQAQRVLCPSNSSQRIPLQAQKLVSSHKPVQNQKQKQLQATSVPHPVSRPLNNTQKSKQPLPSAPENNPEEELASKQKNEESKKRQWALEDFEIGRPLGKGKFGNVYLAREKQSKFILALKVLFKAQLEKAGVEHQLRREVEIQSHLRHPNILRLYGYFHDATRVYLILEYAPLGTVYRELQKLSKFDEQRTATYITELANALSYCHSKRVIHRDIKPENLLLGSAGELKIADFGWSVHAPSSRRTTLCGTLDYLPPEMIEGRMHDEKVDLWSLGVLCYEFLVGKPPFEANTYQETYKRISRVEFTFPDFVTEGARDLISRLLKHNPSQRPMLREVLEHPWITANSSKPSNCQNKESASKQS

`O=C(NC1CCCCC1)c1cc(C2CC2)on1`: the EC50 in [1] and in assay [2] was > 50 µM (inactive) in each case.
On to `CCN(CC(=O)Nc1ccc(NC(C)=O)cc1)C(=O)c1ccccc1SCc1c(C)noc1C`, for which the IC50 in assay [3] is 2.22 µM (active).
Take `Fc1ccc(-c2noc(/C=C/c3ccccc3)n2)cc1`: the concentration for half-maximal inhibition (IC50) in [4] is 8.8 µM (active); in [5], 2.98 µM (active); in assay [6], 18 µM (active); in assay [7], 3.38 µM (active); in [8], > 99 µM (inactive); in assay [9], > 99 µM (inactive). Besides, the half-inhibitory concentration (IC50) in [10] is 20.5 µM (active).
Turning to `CN(C)CCN(C(=O)c1ccc(Cl)s1)c1nc2ccc(S(C)(=O)=O)cc2s1`, the IC50 in assay [4], in assay [6], in assay [8] and in [9] was > 99 µM (inactive) throughout.
Consider `CCOc1ccc(-c2nc(C(=O)N(C3CCCCC3)C3CCCCC3)co2)cc1OCC`, for which the EC50 in assay [1] and in [2] was > 50 µM (inactive) each time.
For `CCOC(=O)C(C(N)=O)C(=S)Nc1ccc(C)cc1` (stereo not drawn), the figures for the inhibitory constant (Ki) in [11] and in assay [12] were 50.1 nM (active) and 5.01 µM (active), respectively.

Values taken from ChEMBL document CHEMBL1201862, “PubChem BioAssay data set” (2004).
